Test results reported in PubChem BioAssay (NCI).
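Interpolation was linear, between the two tested concentrations surrounding the appropriate level; five concentrations were tested over 48 hours in 96-well plates. At the TGI there is no net growth.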

Legend:
Test in all cases: NCI tumour cell line growth inhibition, 48 h
DMS 273 small cell lung = system: DMS 273 small cell lung
KM20L2 colon = system: KM20L2 colon
M19-MEL melanoma = system: M19-MEL melanoma
RXF-631 renal = system: RXF-631 renal
XF 498 CNS = system: XF 498 CNS
HOP-18 NSCLC = system: HOP-18 NSCLC
P388 leukemia = system: P388 leukemia
P388/ADR leukemia = system: P388/ADR leukemia
SN12K1 renal = system: SN12K1 renal

Structure (SMILES) | TGI (DMS 273 small cell lung) [µM] | TGI (KM20L2 colon) [µM] | TGI (M19-MEL melanoma) [µM] | TGI (RXF-631 renal) [µM] | TGI (XF 498 CNS) [µM] | TGI (HOP-18 NSCLC) [µM] | TGI (P388 leukemia) [µM] | TGI (P388/ADR leukemia) [µM] | TGI (SN12K1 renal) [µM]
CC(C)(C)C1CCC2(CC1)CCN(CCCN1CCOCC1)CC2 | 38.3 | 5.24 | 25.9 | 31 | – | – | – | – | –
COc1cc2ccc1-c1cc(ccc1O)CC1c3cc4c(cc3CCN1C)Oc1c(OC)cc3c(c1O4)C(C2)N(C)CC3 (stereo not given) | 3.27 | 2.97 | 3.36 | – | 3.44 | – | – | – | –
Oc1cc(O)cc(/C=C/c2ccc(O)c(O)c2)c1 | 38.9 | 86.1 | 41.7 | – | – | > 100 | > 66.9 | > 67.5 | 18.3
CN(C)c1ccc(C2CC(=O)C(C#N)=C(c3ccccc3)NN2C)cc1 (stereo not given) | – | – | – | > 100 | 38.3 | > 100 | – | – | –
CN(C)[C@@H]1C(=O)C(C(=O)NCNCCCC(=O)O)=C(O)[C@@]2(O)C(=O)C3=C(O)c4c(O)cccc4[C@@](C)(O)[C@H]3C[C@@H]12 | > 100 | > 100 | > 100 | – | > 100 | > 100 | – | – | –
Cc1c2ccnc(-c3ccccc3)c2cc2c1[nH]c1ccccc12 | 4.06 | 6.8 | 8.48 | – | – | 8.67 | 5.46 | 6.08 | 5.04
